Patent publication US6737383B1, “Herbicidal oxadiazolidines” (priority 1999, dated 2004)

Key:
[1] = test system: purple nutsedge; experiment: Test B pre/postemergence purple nutsedge; assay type: in vivo, Cyperus rotundus
Method in brief: (§1)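 Herbicidal effect was estimated by eye on a ten-point control scale after plants spent twelve to sixteen days in a greenhouse following soil or foliar treatment. Foliar sprays targeted plants at one to four leaves; all doses were formulated in a non-phytotoxic solvent with surfactant.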

[2] = test system: wild oat; experiment: Test B pre/postemergence wild oat; assay type: in vivo, Avena fatua
Method in brief: as §1

[3] = test system: surinam grass; experiment: Test B pre/postemergence surinam grass; assay type: in vivo, Brachiaria decumbens
Method in brief: as §1

[4] = test system: crabgrass; experiment: Test B pre/postemergence crabgrass; assay type: in vivo, Digitaria sanguinalis
Method in brief: as §1

[5] = test system: cocklebur; experiment: Test B pre/postemergence cocklebur; assay type: in vivo, Xanthium strumarium
Method in brief: as §1

[6] = test system: bamyardgrass; experiment: Test B flood test barnyardgrass; assay type: in vivo, Echinochloa crus-galli
Method in brief: (§2)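 Read-out is a visual response score from 0 (no effect) to 10 (complete control), assigned by comparison with untreated controls. Treatment was applied at the 2-leaf stage, and plants stayed in the greenhouse for twelve to sixteen days before scoring.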

[7] = test system: morningglory; experiment: Test B pre/postemergence morningglory; assay type: in vivo, Ipomoea hederacea
Method in brief: as §1

[8] = test system: velvetleaf; experiment: Test B pre/postemergence velvetleaf; assay type: in vivo, Abutilon theophrasti
Method in brief: as §1

[9] = test system: rape; experiment: Test B pre/postemergence rape; assay type: in vivo, Brassica napus
Method in brief: as §1

[10] = test system: smallflower flatsedge; experiment: Test B flood test smallflower flatsedge; assay type: in vivo, Cyperus difformis
Method in brief: as §2

[11] = test system: rice; experiment: Test B flood test rice; assay type: in vivo, Oryza sativa
Method in brief: as §2

[12] = test system: bedstraw; experiment: Test B pre/postemergence bedstraw; assay type: in vivo, Galium aparine
Method in brief: as §1

[13] = test system: pigweed; experiment: Test B pre/postemergence pigweed; assay type: in vivo, Amaranthus retroflexus
Method in brief: as §1

[14] = test system: corn; experiment: Test B pre/postemergence corn; assay type: in vivo, Zea mays
Method in brief: as §1

[15] = test system: wheat; experiment: Test B pre/postemergence wheat; assay type: in vivo, Triticum aestivum
Method in brief: as §1

[16] = test system: duck salad; experiment: Test B flood test duck salad; assay type: in vivo, Heteranthera limosa
Method in brief: as §2

[17] = test system: soybean; experiment: Test B pre/postemergence soybean; assay type: in vivo, Glycine max
Method in brief: as §1

[18] = test system: giant foxtail; experiment: Test B pre/postemergence giant foxtail; assay type: in vivo, Setaria faberii
Method in brief: as §1

[19] = test system: sugar beet; experiment: Test B pre/postemergence sugar beet; assay type: in vivo, Beta vulgaris
Method in brief: as §1

[20] = test system: blackgrass; experiment: Test B pre/postemergence blackgrass; assay type: in vivo, Alopecurus myosuroides
Method in brief: as §1

[21] = Postemergence, Rate 62 g/ha, scale of 0 to 10, 0 is no effect, 10 is complete control
[22] = Postemergence, Rate 125 g/ha, scale of 0 to 10 where 0 is no effect and 10 is complete control
[23] = Postemergence, Rate 500 g/ha, scale of 0 to 10 where 0 is no effect and 10 is complete control
[24] = Preemergence, Rate 62 g/ha, scale 0 to 10 (0 no effect, 10 complete control)
[25] = Preemergence, Rate 125 g/ha, scale of 0 to 10 where 0 is no effect and 10 is complete control
[26] = Preemergence, Rate 500 g/ha, scale of 0 to 10 where 0 is no effect and 10 is complete control
[27] = Postemergence, Rate 250 g/ha, scale of 0 to 10, 0 is no effect, 10 is complete control
[28] = Rate 62 g/ha, flood test species, Pre-emergence, visual evaluation after twelve to sixteen days
[29] = Rate 125 g/ha, under heading Pre-emergence, flood test species, visual evaluation after twelve to sixteen days
[30] = Rate 250 g/ha, Pre-emergence (flood test species), scale 0 to 10, 0 is no effect, 10 is complete control
[31] = Rate 500 g/ha, Pre-emergence section of Table B, 0 to 10 scale (0 no effect, 10 complete control)

## CC(C)N(C(=O)n1oc(=O)n(CC(=O)N(C)C)c1=O)c1ccccc1 [Compound 588]
[1]; [21]
  Nutsedge plant response rating: 0
[1]; [22]
  Plant response rating, Nutsedge: 0
[1]; [23]
  Plant response rating, Nutsedge: 0
[1]; [24]
  Nutsedge plant response rating: 0
[1]; [25]
  Nutsedge plant response rating: 0
[1]; [26]
  Nutsedge plant response rating: 0
[2]; [22]
  Plant response rating, Wild oats: 0
[2]; [27]
  Wild oats plant response rating: 0
[2]; [23]
  Plant response rating, Wild oats: 0
[2]; [24]
  Wild oats plant response rating: 0
[2]; [25]
  Wild oats plant response rating: 0
[2]; [26]
  Wild oats plant response rating: 7
[3]; [21]
  B. signalgrass plant response rating: 0
[3]; [22]
  Plant response rating, B. signalgrass: 0
[3]; [27]
  B. signalgrass plant response rating: 4
[3]; [23]
  Plant response rating, B. signalgrass: 8
[3]; [24]
  B. signalgrass plant response rating: 0
[3]; [25]
  B. signalgrass plant response rating: 1
[3]; Preemergence, Rate 250 g/ha
  B. signalgrass plant response rating (0 to 10 scale, 0 is no effect, 10 is complete control): 5
[3]; [26]
  B. signalgrass plant response rating: 8
[4]; [21]
  Crabgrass plant response rating: 0
[4]; [22]
  Plant response rating, Crabgrass: 2
[4]; [27]
  Crabgrass plant response rating: 6
[4]; [24]
  Crabgrass plant response rating: 3
[4]; [25]
  Crabgrass plant response rating: 6
[4]; [26]
  Crabgrass plant response rating: 9
[5]; [21]
  Cocklebur plant response rating: 0
[5]; [22]
  Plant response rating, Cocklebur: 0
[5]; [27]
  Cocklebur plant response rating: 0
[5]; [23]
  Plant response rating, Cocklebur: 0
[5]; [24]
  Cocklebur plant response rating: 0
[5]; [25]
  Cocklebur plant response rating: 0
[5]; Preemergence, Rate 250 g/ha
  Cocklebur plant response rating (0 to 10 scale): 0
[5]; [26]
  Cocklebur plant response rating: 0
[6]; [28]
  Plant response rating, Barnyardgrass (0 to 10 scale, 0 is no effect, 10 is complete control): 0
[6]; [29]
  Barnyardgrass plant response rating (0 to 10 scale, 0 is no effect, 10 is complete control): 0
[6]; [30]
  Barnyardgrass plant response rating: 0
[6]; [31]
  Barnyardgrass plant response rating: 0
[7]; [21]
  Morningglory plant response rating: 7
[7]; [22]
  Plant response rating, Morningglory: 7
[7]; [27]
  Morningglory plant response rating: 10
[7]; [23]
  Plant response rating, Morningglory: 10
[7]; [24]
  Morningglory plant response rating: 0
[7]; [25]
  Morningglory plant response rating: 0
[7]; [26]
  Morningglory plant response rating: 0
[8]; [22]
  Plant response rating, Velvetleaf: 0
[8]; [27]
  Velvetleaf plant response rating: 0
[8]; [23]
  Plant response rating, Velvetleaf: 7
[8]; [24]
  Velvetleaf plant response rating: 0
[8]; [25]
  Velvetleaf plant response rating: 0
[8]; [26]
  Velvetleaf plant response rating: 5
[9]; [21]
  Rape plant response rating: 0
[9]; [22]
  Plant response rating, Rape: 0
[9]; [27]
  Rape plant response rating: 0
[9]; [23]
  Plant response rating, Rape: 0
[9]; [24]
  Rape plant response rating: 0
[9]; [25]
  Rape plant response rating: 0
[9]; [26]
  Rape plant response rating: 0
[10]; [28]
  Plant response rating, S. Flatsedge (0 to 10 scale, 0 is no effect, 10 is complete control): 0
[10]; [29]
  S. Flatsedge plant response rating (0 to 10 scale, 0 is no effect, 10 is complete control): 0
[10]; [30]
  S. Flatsedge plant response rating: 0
[10]; [31]
  S. Flatsedge plant response rating: 0
[11]; [28]
  Plant response rating, Rice (0 to 10 scale, 0 is no effect, 10 is complete control): 0
[11]; [29]
  Rice plant response rating (0 to 10 scale, 0 is no effect, 10 is complete control): 0
[11]; [30]
  Rice plant response rating: 0
[11]; [31]
  Rice plant response rating: 0
[12]; [21]
  Bedstraw plant response rating: 0
[12]; Preemergence, Rate 250 g/ha
  Bedstraw plant response rating (0 to 10 scale): 0
[13]; [22]
  Plant response rating, Redroot pigweed: 0
[13]; [27]
  Redroot pigweed plant response rating: 0
[13]; [23]
  Plant response rating, Redroot pigweed: 0
[13]; [24]
  Redroot pigweed plant response rating: 0
[13]; [25]
  Redroot pigweed plant response rating: 1
[13]; [26]
  Redroot pigweed plant response rating: 9
[14]; [21]
  Corn plant response rating: 0
[14]; [22]
  Plant response rating, Corn: 0
[14]; [27]
  Corn plant response rating: 0
[14]; [23]
  Plant response rating, Corn: 0
[14]; [24]
  Corn plant response rating: 0
[14]; [25]
  Corn plant response rating: 0
[14]; Preemergence, Rate 250 g/ha
  Corn plant response rating (0 to 10 scale): 0
[14]; [26]
  Corn plant response rating: 5
[15]; [22]
  Plant response rating, Wheat: 0
[15]; [27]
  Wheat plant response rating: 0
[15]; [23]
  Plant response rating, Wheat: 3
[15]; [24]
  Wheat plant response rating: 0
[15]; [25]
  Wheat plant response rating: 2
[15]; [26]
  Wheat plant response rating: 8
[16]; [28]
  Plant response rating, Ducksalad (0 to 10 scale, 0 is no effect, 10 is complete control): 0
[16]; [29]
  Ducksalad plant response rating (0 to 10 scale, 0 is no effect, 10 is complete control): 0
[16]; [30]
  Ducksalad plant response rating: 0
[16]; [31]
  Ducksalad plant response rating: 0
[17]; [22]
  Plant response rating, Soybean: 4
[17]; [27]
  Soybean plant response rating: 4
[17]; [23]
  Plant response rating, Soybean: 7
[17]; [24]
  Soybean plant response rating: 0
[17]; [25]
  Soybean plant response rating: 0
[17]; [26]
  Soybean plant response rating: 5
[18]; [21]
  Giant foxtail plant response rating: 0
[18]; [22]
  Plant response rating, Giant foxtail: 4
[18]; [27]
  Giant foxtail plant response rating: 8
[18]; [23]
  Plant response rating, Giant foxtail: 8
[18]; [24]
  Giant foxtail plant response rating: 7
[18]; [25]
  Giant foxtail plant response rating: 8
[18]; [26]
  Giant foxtail plant response rating: 10
[19]; [22]
  Plant response rating, Sugarbeets: 0
[19]; [27]
  Sugarbeets plant response rating: 0
[19]; [23]
  Plant response rating, Sugarbeets: 0
[19]; [24]
  Sugarbeets plant response rating: 0
[19]; [25]
  Sugarbeets plant response rating: 0
[19]; [26]
  Sugarbeets plant response rating: 6
[20]; [21]
  Blackgrass plant response rating: 0
[20]; [22]
  Plant response rating, Blackgrass: 0
[20]; [27]
  Blackgrass plant response rating: 6
[20]; [23]
  Plant response rating, Blackgrass: 8
[20]; [24]
  Blackgrass plant response rating: 0
[20]; [25]
  Blackgrass plant response rating: 3
[20]; Preemergence, Rate 250 g/ha
  Blackgrass plant response rating (0 to 10 scale): 5
[20]; [26]
  Blackgrass plant response rating: 8
